Consider five molecules from ChEMBL document CHEMBL1201862, “PubChem BioAssay data set” (2004).

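Growth conditions: 96-well plates. Treatment: test compound, 48 hours, 5 concentrations. Analysis: linear interpolation between bracketing concentrations; unreached endpoints set to highest concentration. The concentration for 50% growth inhibition is given as GI50.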 Active and inactive are the calls of the source. No stated cut-off is given here; in the data, active = GI50 up to about 1.1 µM and inactive = higher. Bounds are passed on as bounds.

Test systems include ACHN; HCC 2998; HCT-15; K562; KM12; M14; MOLT-4; Malme-3M; NCI-H23; OVCAR-3; SN12C; SNB-19; SW-620; UACC-62; CAKI-1; HOP-92; OVCAR-5; SK-MEL-2.
Assay in all cases: DTP human tumour cell line panel, 48 h

The GI50 is the concentration giving 50% growth inhibition. As to `COc1ccccc1-c1cc(=O)c2ccccc2[nH]1`, the GI50 with ACHN was > 100 µM (inactive); with HCC 2998, 72.6 µM (inactive); with HCT-15, 55.1 µM; with K562, 36.1 µM (inactive); in the assay with KM12, 63.7 µM (inactive); in the assay with M14, 99.8 µM (inactive). For the same molecule, the GI50 in the assay with MOLT-4 is 52 µM (inactive); in the assay with Malme-3M, 49 µM (inactive); with NCI-H23, > 100 µM (inactive); in the assay on OVCAR-3, > 100 µM (inactive); in the assay with SN12C, > 100 µM (inactive); with SNB-19 it was > 100 µM (inactive). Also, the GI50 was 40.4 µM (inactive) in the assay with SW-620 and 41.7 µM (inactive) with UACC-62.
For the molecule `ClCCCC1COc2ccccc2O1` (stereo not given), the GI50 in the assay on ACHN is > 100 µM (inactive); in the assay with CAKI-1, > 100 µM (inactive); in the assay with HCC 2998, > 100 µM (inactive); in the assay on HCT-15, above 100 µM; with HOP-92 it was 43.6 µM (inactive); in the assay with K562, > 100 µM (inactive). The GI50 is > 100 µM (inactive) with M14; > 100 µM (inactive) in the assay with MOLT-4; > 100 µM (inactive) in the assay with Malme-3M; > 10 µM (inactive) with NCI-H23; > 100 µM (inactive) in the assay with OVCAR-3; 55.8 µM (inactive) with OVCAR-5. The GI50 was > 100 µM (inactive) in the assay with SN12C, > 100 µM (inactive) with SNB-19, > 100 µM (inactive) in the assay on SW-620 and 98.6 µM (inactive) in the assay on UACC-62.
Regarding `COc1cc(CNC2=NCCC2)cc(OC)c1OC`, the GI50 was > 100 µM (inactive) in the assay on ACHN; > 100 µM (inactive) in the assay with CAKI-1; > 100 µM (inactive) in the assay with HCC 2998; above 100 µM in the assay on HCT-15; > 100 µM (inactive) in the assay on HOP-92; 65.5 µM (inactive) in the assay on K562. Also, the GI50 in the assay with KM12 is > 10 µM (inactive); in the assay with M14, > 100 µM (inactive); with MOLT-4 it was > 100 µM (inactive); with Malme-3M it was > 100 µM (inactive); with NCI-H23, > 100 µM (inactive); in the assay on OVCAR-3, > 100 µM (inactive). Further, the GI50 in the assay on OVCAR-5, with SN12C, with SNB-19, with SW-620 and with UACC-62 was > 100 µM (inactive) throughout.
Regarding `COc1cc(O)c(C(=O)CC(C)=O)c(OC)c1`, the GI50 in the assay with ACHN, in the assay with CAKI-1, in the assay with HCC 2998, with K562, in the assay on KM12 and in the assay with M14 was > 100 µM (inactive) each time. Further, the GI50 in the assay on MOLT-4, with Malme-3M, in the assay on NCI-H23, with OVCAR-3, with OVCAR-5 and in the assay on SK-MEL-2 was > 100 µM (inactive) each time. Moreover, the GI50 in the assay with SN12C, with SNB-19, in the assay with SW-620 and in the assay with UACC-62 was > 100 µM (inactive) throughout.
`O=[N+]([O-])c1cccc(Nc2nc(Cl)nc(Cl)n2)c1`: the GI50 in the assay on ACHN is > 100 µM (inactive); in the assay on CAKI-1, > 100 µM (inactive); in the assay with HCC 2998, > 100 µM (inactive); with HCT-15, above 100 µM; in the assay on K562 it was > 100 µM (inactive); in the assay with KM12 it was > 100 µM (inactive). Besides, the GI50 in the assay on M14, in the assay with MOLT-4, in the assay with Malme-3M, with NCI-H23, in the assay on OVCAR-3 and in the assay with OVCAR-5 was > 100 µM (inactive) in each case. Moreover, the GI50 in the assay on SK-MEL-2, in the assay on SN12C, with SNB-19, in the assay on SW-620 and in the assay with UACC-62 was > 100 µM (inactive) throughout.
